Assay results from patent US20090017103A1, “Antisense oligonucleotides for prevention of metastasis formation of cancer cells” (priority 2003, published 2009).
Marks after values point to notes of the source that are not given here.

Test system: osteonectin
Assay: Western blot of osteonectin expression after exposure to ASOs
Type: cell-based, human
Conditions: for osteonectin expression in relation to untreated control (100%): single exposure, lipofectamine, 10 μM
[1] = MDA-MB231^F (growing without FBS)

Substance	osteonectin expression in relation to untreated control (100%) (MDA-MB231)	osteonectin expression in relation to untreated control (100%) [1] [%]	osteonectin expression in relation to untreated control (100%) (MDA-MB435s) [%]	decrease of osteonectin (MDA-MB-231 cells) [%]
5′-TTGAAGTTTCTCTTGATTAA-3′ (antisense TTGAAGTTTCTCTTGATTAA; all phosphorothioate, sugars by position and methylation of C not given here) [ASO-ON-10]	46%	35	46	
5′- TGTACTTGTCATTGTCCAGG-3′ (antisense TGTACTTGTCATTGTCCAGG; all phosphorothioate, sugars by position and methylation of C not given here) [ASO-ON-7]	50%	32	64	
5′-AGATCCAGGCCCTCATGGTG -3′ (antisense AGATCCAGGCCCTCATGGTG; all phosphorothioate, sugars by position and methylation of C not given here) [ASO-ON-1]	39^3) %	44	46	
5′-ATGTTATAGTTCTTCTCGAA-3′ [ASO-ON-5]	30%	22	27	70
